Experimental data reported in US12215085B2 (priority 2019, dated 2025).

What was measured:
normal anesthetized dogs = experiment: General pharmacological indexes of normal anesthetized dog; format: in vivo; settings: 0.8, 1.6 and 3.2 mg/kg
Excerpt: Meanwhile, the influence of Crystal Form A of octahydroaminoacridine succinate on the general pharmacological indexes of the normal anesthetized dog was observed.

[1] = 24 hours equilibrium solubility in water; format: physicochemical; settings: thermodynamic from solid, room temperature, initial concentration about 100 mg/mL, read-out: 24 hours equilibrium solubility in H2O
Description: Step: 24 hours equilibrium solubility of the sample of Crystal Form A in water was tested at room temperature. In the experiment, after mixing the sample of crystal form with water to form a suspension (initial concentration was about 100 mg/mL), the stirring was carried out for 24 hours (1000 rpm) at room temperature, a supernatant obtained from the centrifugation was filtered and the solubility was measured, and the residual solid was subjected to the XRPD test.

[2] = system: rats with beta-amyloid induced senile dementia; experiment: Step-down test, beta-amyloid induced senile dementia rats; format: in vivo, rat; settings: 2.8 mg/kg, P<0.05
[3] = Dynamic moisture sorption (DVS) hygroscopicity; format: physicochemical; settings: 25° C.; begins to significantly absorb water at 90% relative humidity
Description: In order to evaluate the stability of Crystal Form A under different humidity conditions, a dynamic moisture sorption (DVS) test was carried out on the sample of Crystal Form A under the constant temperature condition of 25° C.

mice = experiment: General pharmacological study in mice; format: in vivo
Wistar rats = experiment: Long-term toxicity, 27 weeks, Wistar rats
Description: 120 Wistar rats were used, 30 rats per group, wherein half of them were males and half were females. The administration route was ig administration, once per day, 6-day administration per week, and a 27-week test period.

[4] = system: rats with beta-amyloid induced senile dementia; experiment: Brain pathological examination, beta-amyloid induced senile dementia rats; format: in vivo, rat
[5] = Physical and chemical stability (XRPD, HPLC); format: physicochemical
Description: • (1) The physical and chemical stability evaluations were performed after Crystal Form A was placed in a closed condition at 80° C. for 24 hours. • (2) The physical and chemical stability evaluations were performed after Crystal Form A was placed in an open condition at 25° C./60% relative humidity and 40° C./75% relative humidity respectively for one week.
The physical and chemical stabilities of the samples were tested by XRPD and HPLC.

[6] = system: rats with common carotid artery occlusion-induced vascular dementia; experiment: Brain pathological examination, common carotid artery occlusion-induced vascular dementia rats; format: in vivo, rat; settings: 1.4 mg/kg and 2.8 mg/kg
mouse = experiment: Acute toxicity LD50, mouse; settings: clinical daily dosage 8 mg/60 kg human/day, per kilogram body weight
[7] = Acute toxicity LD50, mouse; settings: in vivo, po

## Nc1c2c(nc3c1CCCC3)CCCC2.O=C(O)CCC(=O)O [Crystal Form A, 9-amino-1,2,3,4,5,6,7,8-octahydroacridine succinate]
Normal anesthetized dogs
  respiratory frequency, respiratory amplitude, arterial blood pressure, heart rate and electrocardiogram: no obvious influence
[1]
  solubility thermodynamic at 24 h: 72.9 mg/mL
[2]; Day 1 and Day 2
  step-down error number vs model group: obviously reduced
[2]; Day 2
  error latency vs model group: obviously prolonged
[3]
  DVS weight gain: up to 5.2%
mice; 4, 8, 16 mg/kg once intragastric
  general state, autonomous activity and coordinated movement of the mice: no significant influence
mice; 4, 8 and 16 mg/kg once intragastric
  sleep number of animals with subthreshold dose of pentobarbital sodium: no obvious influence
Wistar rats; 27 weeks intragastric
  toxic target organ for long-term administration: could be the liver, but reversible
Wistar rats; high-dose group 30 mg/kg, 27 weeks
  animals died: 5 animals
Wistar rats; intragastric, 27 weeks
  non-toxic reaction dose: 15 mg/kg
Wistar rats; rat, in vivo
  body weight of male and female rats vs control group: obviously reduced
  electrocardiogram PR interval, QRS interval, QT interval, T wave, heart rate vs control group: no significant difference
  general and microscopic examination of all organs: No obvious pathological changes caused by the drug toxicity
  general state, behavioral activity, mental state, fur, urine and feces, food (water) intake: all normal
  hematology, blood biochemistry examination and each organ coefficient vs control group: no obvious difference
  rats with obvious elevation of the liver function index ALT: 2 rats
[4]; high-dose group (2.8 mg/kg)
  pathological damage of cerebral cortex and hippocampus caused by beta-amyloid: could relieve the pathological damage
[4]; low and medium-dose groups (0.7 and 1.4 mg/kg)
  pathological changes of cortex and hippocampus compared with the model group: no obvious difference
[5]; 80° C. closed 24 hours, 25° C./60% relative humidity and 40° C./75% relative humidity open one week
  crystal form after storage (XRPD): unchanged
[5]; all three test conditions: 80° C. closed 24 hours, 25° C./60% RH and 40° C./75% RH open one week
  chemical purity after storage (HPLC): unchanged
[6]
  pathological change of the common carotid artery occlusion-induced vascular dementia: could relieve the pathological change
mouse
  LD50 as multiple of the clinical daily dosage: ~499.5 times
[7]
  LD50: 66.6 ± 3.3 mg/kg
